# Experiments:
# Assay in all cases: cells
# [1] = system: SW 1116; format: functional, cell-based; conditions: Homo sapiens;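 also: growth inhibition of SW1116 cells, read out with a cell viability assay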
# Description: SANGER: Inhibition of human SW1116 cell growth in a cell viability assay.
# [2] = system: G-361; format: functional, cell-based, Homo sapiens; conditions: Homo sapiens, G-361
# [3] = system: MEL-JUSO; format: functional, cell-based, Homo sapiens; conditions: Homo sapiens, MEL-JUSO;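 also: growth inhibition of human MEL-JUSO cells, read out with a cell viability assay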
# Description: SANGER: Inhibition of human MEL-JUSO cell growth in a cell viability assay.
# [4] = system: TI-73; format: functional, cell-based; conditions: Homo sapiens;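 also: cell viability assay measuring how much compounds suppress growth of the cultured cell line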
# Description: SANGER: Inhibition of human TI-73 cell growth in a cell viability assay.
# [5] = system: RH-18; format: functional, cell-based; conditions: Homo sapiens, Rh18;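 also: growth inhibition of human RH-18 cells, read out with a cell viability assay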
# Description: SANGER: Inhibition of human RH-18 cell growth in a cell viability assay.
# [6] = system: D-423MG; format: functional, cell-based; conditions: Homo sapiens
# Description: SANGER: Inhibition of human D-423MG cell growth in a cell viability assay.
# [7] = system: BT-549; format: functional, cell-based; conditions: Homo sapiens
# Description: SANGER: Inhibition of human BT-549 cell growth in a cell viability assay.
# [8] = system: NCI-H2029; format: functional, cell-based; conditions: Homo sapiens;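 also: Read-out is a viability assay on the cultured cells, and IC50 is the concentration that suppresses cell growth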
# Description: SANGER: Inhibition of human NCI-H2029 cell growth in a cell viability assay.
# [9] = system: NCI-H2009; format: functional, cell-based, Homo sapiens; conditions: Homo sapiens, NCI-H2009;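 also: cell viability assay measuring inhibition of NCI-H2009 cell growth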
# Description: SANGER: Inhibition of human NCI-H2009 cell growth in a cell viability assay.
# [10] = system: NCI-H460; format: functional, cell-based, Homo sapiens; conditions: Homo sapiens, NCI-H460;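 also: cell viability assay scoring growth inhibition of human NCI-H460 cells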
# Description: SANGER: Inhibition of human NCI-H460 cell growth in a cell viability assay.
# [11] = system: ZR-75-30; format: functional, cell-based; conditions: Homo sapiens;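 also: growth inhibition of ZR-75-30 cells, measured with a cell viability readout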
# Description: SANGER: Inhibition of human ZR-75-30 cell growth in a cell viability assay.
# [12] = system: SJRH30; format: functional, cell-based; conditions: Homo sapiens;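 also: growth inhibition of human SJRH30 cells, read out with a cell viability assay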
# Description: SANGER: Inhibition of human SJRH30 cell growth in a cell viability assay.
# [13] = system: OC-314; format: functional, cell-based; conditions: Homo sapiens
# Description: SANGER: Inhibition of human OC-314 cell growth in a cell viability assay.
# [14] = system: Kasumi 1; format: functional, cell-based; conditions: Homo sapiens;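 also: growth inhibition of human Kasumi-1 cells, read out by a cell viability assay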
# Description: SANGER: Inhibition of human KASUMI-1 cell growth in a cell viability assay.
# [15] = system: EW-22; format: functional, cell-based; conditions: Homo sapiens;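 also: growth inhibition of the EW-22 cell line, measured with a cell viability readout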
# Description: SANGER: Inhibition of human EW-22 cell growth in a cell viability assay.
# [16] = system: YH-13; format: functional, cell-based; conditions: Homo sapiens;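 also: cell viability readout of growth suppression in the human YH-13 cell line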
# Description: SANGER: Inhibition of human YH-13 cell growth in a cell viability assay.
# [17] = system: NCI-H2291; format: functional, cell-based; conditions: Homo sapiens
# Description: SANGER: Inhibition of human NCI-H2291 cell growth in a cell viability assay.
# [18] = system: A549; format: functional, cell-based; conditions: Homo sapiens;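 also: growth inhibition of A549 cells, read out with a cell viability assay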
# Description: SANGER: Inhibition of human A549 cell growth in a cell viability assay.
# [19] = system: NCI-H1703; format: functional, cell-based, Homo sapiens; conditions: Homo sapiens, NCI-H1703;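 also: growth inhibition of NCI-H1703 cells, read out via a cell viability assay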
# Description: SANGER: Inhibition of human NCI-H1703 cell growth in a cell viability assay.
# [20] = system: HT55; format: functional, cell-based, Homo sapiens; conditions: Homo sapiens, HT55;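 also: cell viability readout measuring growth inhibition of human HT55 cells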
# Description: SANGER: Inhibition of human HT55 cell growth in a cell viability assay.
Compound,IC50 [1] [µM],IC50 [2] [µM],IC50 [3] [µM],IC50 [4] [µM],IC50 [5] [µM],IC50 [6] [µM],IC50 [7] [µM],IC50 [8] [µM],IC50 [9] [µM],IC50 [10] [µM],IC50 [11] [µM],IC50 [12] [µM],IC50 [13] [µM],IC50 [14] [µM],IC50 [15] [µM],IC50 [16] [µM],IC50 [17] [µM],IC50 [18] [µM],IC50 [19] [µM],IC50 [20] [µM]
CN(C)C/C=C/C(=O)Nc1cc2c(Nc3ccc(F)c(Cl)c3)ncnc2cc1O[C@H]1CCOC1 [AFATINIB],> 0.5,> 0.5,> 0.5,0.147,> 0.5,> 0.5,> 0.5,> 0.5,> 0.5,> 0.5,0.0955,> 0.5,> 0.5,0.00911,> 0.5,> 0.5,> 0.5,> 0.5,> 0.5,> 0.5
O=C(NOCC1CC1)c1ccc(F)c(F)c1Nc1ccc(I)cc1Cl [CI-1040],1.56,0.368,5.74,> 10,> 10,3.08,> 10,> 10,> 10,> 10,> 10,> 10,> 10,0.399,> 10,> 10,1.33,1.2,> 10,
Nc1ccn([C@@H]2O[C@H](CO)[C@@H](O)[C@@H]2O)c(=O)n1 [CYTARABINE],> 2,> 2,0.0858,0.613,> 2,0.299,0.531,> 2,> 2,> 2,> 2,0.683,0.399,> 2,0.668,0.328,> 2,0.0497,0.0498,> 2
O=c1cc(-c2cccc3c2Sc2ccccc2S3)oc(N2CCOCC2)c1 [KU-55933],> 10,> 10,> 10,> 10,> 10,> 10,> 10,> 10,> 10,> 10,> 10,> 10,> 10,,> 10,> 10,> 10,> 10,> 10,> 10
C=CCNC1=C2C[C@@H](C)C[C@H](OC)[C@H](O)[C@@H](C)/C=C(\C)[C@H](OC(N)=O)[C@@H](OC)/C=C\C=C(/C)C(=O)NC(=CC1=O)C2=O [TANESPIMYCIN],> 1,0.227,0.0447,0.018,> 1,> 1,0.118,> 1,0.853,0.0197,> 1,> 1,0.167,,> 1,0.0572,0.479,< 0.00391,0.414,> 1
